ChEMBL document CHEMBL3044926, “Controlling powdery mildew on cucurbit rootstock seedlings in the greenhouse with fungicides and biofungicides” (Crop Prot, 2012)

Experiments:
[1] = tested on: Podosphaera xanthii; assay: (§1) Fungicidal activity against Podosphaera xanthii (powdery mildew) inoculated in Lagenaria siceraria Emphasis continuously after first drug application assessed as disease severity at 98.2% in 11.99 g/L applied thrice at 5-days intervals measured 5 days after third application under green house conditions (water Rvb = 53.5%); format: functional
[2] = tested on: Podosphaera xanthii; assay: (§2) Fungicidal activity against Podosphaera xanthii (powdery mildew) inoculated in inter-specific squash hybrid Strong tosa (Cucurbita moschata x Cucurbita maxima) rootstock seedlings for 7 days prior to drug application assessed as disease severity on lower surface areas of cotyledonsat 98.2% in 11.99 g/L applied once measured 7 days post-drug dose under greenhouse conditions (water Rvb = 5.1%); format: functional
[3] = tested on: Podosphaera xanthii; assay: as §1, with “squash (Cucurbita pepo) rootstock seedlings” for “Lagenaria siceraria Emphasis”, “3.9%)” for “53.5%)”; format: functional
[4] = tested on: Podosphaera xanthii; assay: as §1, with “severity on upper surface areas of cotyledons” for “severity”, “36.8%)” for “53.5%)”; format: functional
[5] = tested on: Lagenaria siceraria; assay: Phytotoxicity against Lagenaria siceraria 'Emphasis' rootstock seedlings; format: organism-based; conditions: in vivo
[6] = tested on: Podosphaera xanthii; assay: as §1, with “severity on lower surface areas of cotyledons” for “severity”, “13.9%)” for “53.5%)”; format: functional
[7] = tested on: Podosphaera xanthii; assay: (§3) Fungicidal activity against Podosphaera xanthii (powdery mildew) inoculated in Lagenaria siceraria Emphasis continuously after first drug application assessed as incidence of disease symptoms on hypocotyls or upper or lower sides of cotyledons at 98.2% in 11.99 g/L applied thrice at 5-days intervals measured 5 days after third application under green house conditions (water Rvb = 100%); format: functional
[8] = tested on: Lagenaria siceraria; assay: Phytotoxicity against Lagenaria siceraria 'Emphasis' rootstock seedlings assessed as stunting; format: organism-based; conditions: in vivo
[9] = tested on: Cucurbita maxima x Cucurbita moschata; assay: Phytotoxicity against inter-specific squash hybrid Cucurbita moschata x Cucurbita maxima (Strong tosa) rootstock seedlings assessed as stunting; format: organism-based; conditions: in vivo
[10] = tested on: Podosphaera xanthii; assay: as §2, with “at” for “on lower surface areas of cotyledonsat”, “17.5%)” for “5.1%)”; format: functional
[11] = tested on: Podosphaera xanthii; assay: Fungicidal activity against Podosphaera xanthii (powdery mildew) inoculated in squash (Cucurbita pepo) rootstock seedlings continuously after first drug application assessed as incidence of disease symptoms on hypocotyls or upper or lower sides of cotyledons at 98.2% in 11.99 g/L applied thrice at 5-days intervals measured 5 days after third application under green house conditions (water Rvb = …; format: functional
[12] = tested on: Cucurbita maxima x Cucurbita moschata; assay: Phytotoxicity against inter-specific squash hybrid Cucurbita moschata x Cucurbita maxima (Strong tosa) rootstock seedlings; format: organism-based; conditions: in vivo
[13] = tested on: Podosphaera xanthii; assay: as §2, with “upper” for “lower”, “10.2%)” for “5.1%)”; format: functional
[14] = tested on: Podosphaera xanthii; assay: Fungicidal activity against Podosphaera xanthii (powdery mildew) inoculated in inter-specific squash hybrid Strong tosa (Cucurbita moschata x Cucurbita maxima) rootstock seedlings for 7 days prior to drug application assessed as incidence of disease symptoms on hypocotyls or upper or lower sides of cotyledons at 98.2% in 11.99 g/L applied once measured 7 days post-drug dose under greenhouse …; format: functional
[15] = tested on: Podosphaera xanthii; assay: as §3, with “38.7%” for “98.2%”, “0.62 ml/L” for “11.99 g/L”; format: functional
[16] = tested on: Podosphaera xanthii; assay: Fungicidal activity against Podosphaera xanthii (powdery mildew) inoculated in inter-specific squash hybrid Strong tosa (Cucurbita moschata x Cucurbita maxima) rootstock seedlings continuously after first drug application assessed as incidence of disease symptoms on hypocotyls or upper or lower sides of cotyledons at 38.7% in 0.62 ml/L applied thrice at 5-days intervals measured 5 days after …; format: functional
[17] = tested on: Podosphaera xanthii; assay: as §1, with “severity on lower surface areas of cotyledons” for “severity”, “38.7%” for “98.2%”, “0.62 ml/L” for “11.99 g/L”, “13.9%)” for “53.5%)”; format: functional
[18] = tested on: Lagenaria siceraria; assay: Phytotoxicity against Lagenaria siceraria 'Emphasis' rootstock seedlings assessed as stunted growth; format: organism-based; conditions: in vivo
[19] = tested on: Podosphaera xanthii; assay: as §1, with “inter-specific squash hybrid Strong tosa (Cucurbita moschata x Cucurbita maxima) rootstock seedlings” for “Lagenaria siceraria Emphasis”, “38.7%” for “98.2%”, “0.62 ml/L” for “11.99 g/L”, “4.2%)” for “53.5%)”; format: functional
[20] = tested on: Podosphaera xanthii; assay: as §2, with “at 38.7%” for “on lower surface areas of cotyledonsat 98.2%”, “0.62 ml/L” for “11.99 g/L”, “17.5%)” for “5.1%)”; format: functional
[21] = tested on: Podosphaera xanthii; assay: Fungicidal activity against Podosphaera xanthii (powdery mildew) inoculated in squash (Cucurbita pepo) rootstock seedlings continuously after first drug application assessed as incidence of disease symptoms on hypocotyls or upper or lower sides of cotyledons at 38.7% in 0.62 ml/L applied thrice at 5-days intervals measured 5 days after third application under green house conditions (water Rvb = …; format: functional
[22] = tested on: Podosphaera xanthii; assay: as §2, with “upper” for “lower”, “38.7%” for “98.2%”, “0.62 ml/L” for “11.99 g/L”, “10.2%)” for “5.1%)”; format: functional
[23] = tested on: Cucurbita maxima x Cucurbita moschata; assay: Phytotoxicity against inter-specific squash hybrid Cucurbita moschata x Cucurbita maxima (Strong tosa) rootstock seedlings assessed as seedlings with stunted growth; format: organism-based; conditions: in vivo
[24] = tested on: Podosphaera xanthii; assay: as §1, with “38.7%” for “98.2%”, “0.62 ml/L” for “11.99 g/L”; format: functional
[25] = tested on: Podosphaera xanthii; assay: Fungicidal activity against Podosphaera xanthii (powdery mildew) inoculated in inter-specific squash hybrid Strong tosa (Cucurbita moschata x Cucurbita maxima) rootstock seedlings for 7 days prior to drug application assessed as incidence of disease symptoms on hypocotyls or upper or lower sides of cotyledons at 38.7% in 0.62 ml/L applied once measured 7 days post-drug dose under greenhouse …; format: functional
[26] = tested on: Lagenaria siceraria; assay: Phytotoxicity against Lagenaria siceraria 'Emphasis' rootstock seedlings assessed as seedlings with stunted growth; format: organism-based; conditions: in vivo
[27] = tested on: Podosphaera xanthii; assay: as §1, with “severity on upper surface areas of cotyledons” for “severity”, “38.7%” for “98.2%”, “0.62 ml/L” for “11.99 g/L”, “36.8%)” for “53.5%)”; format: functional
[28] = tested on: Cucurbita maxima x Cucurbita moschata; assay: Phytotoxicity against inter-specific squash hybrid Cucurbita moschata x Cucurbita maxima (Strong tosa) rootstock seedlings assessed as stunted growth; format: organism-based; conditions: in vivo
[29] = tested on: Podosphaera xanthii; assay: as §2, with “38.7%” for “98.2%”, “0.62 ml/L” for “11.99 g/L”; format: functional
[30] = tested on: Podosphaera xanthii; assay: as §1, with “squash (Cucurbita pepo) rootstock seedlings” for “Lagenaria siceraria Emphasis”, “38.7%” for “98.2%”, “0.62 ml/L” for “11.99 g/L”, “3.9%)” for “53.5%)”; format: functional
[31] = tested on: Podosphaera xanthii; assay: as §2, with “upper” for “lower”, “45%” for “98.2%”, “0.6” for “11.99”, “10.2%)” for “5.1%)”; format: functional
[32] = tested on: Podosphaera xanthii; assay: Fungicidal activity against Podosphaera xanthii (powdery mildew) inoculated in squash (Cucurbita pepo) rootstock seedlings continuously after first drug application assessed as incidence of disease symptoms on hypocotyls or upper or lower sides of cotyledons at 45% in 0.6 g/L applied thrice at 5-days intervals measured 5 days after third application under green house conditions (water Rvb = …; format: functional
[33] = tested on: Podosphaera xanthii; assay: Fungicidal activity against Podosphaera xanthii (powdery mildew) inoculated in inter-specific squash hybrid Strong tosa (Cucurbita moschata x Cucurbita maxima) rootstock seedlings for 7 days prior to drug application assessed as incidence of disease symptoms on hypocotyls or upper or lower sides of cotyledons at 45% in 0.6 g/L applied once measured 7 days post-drug dose under greenhouse …; format: functional
[34] = tested on: Podosphaera xanthii; assay: as §2, with “at 45%” for “on lower surface areas of cotyledonsat 98.2%”, “0.6” for “11.99”, “17.5%)” for “5.1%)”; format: functional
[35] = tested on: Podosphaera xanthii; assay: as §1, with “squash (Cucurbita pepo) rootstock seedlings” for “Lagenaria siceraria Emphasis”, “45%” for “98.2%”, “0.6” for “11.99”, “3.9%)” for “53.5%)”; format: functional
[36] = tested on: Podosphaera xanthii; assay: as §2, with “45%” for “98.2%”, “0.6” for “11.99”, “rvb” for “Rvb”; format: functional
[37] = tested on: Podosphaera xanthii; assay: as §2, with “upper” for “lower”, “46.1%” for “98.2%”, “1.50” for “11.99”, “10.2%)” for “5.1%)”; format: functional, organism-based
[38] = tested on: Podosphaera xanthii; assay: as §2, with “46.1%” for “98.2%”, “1.50” for “11.99”; format: functional, organism-based
[39] = tested on: Podosphaera xanthii; assay: Fungicidal activity against Podosphaera xanthii (powdery mildew) inoculated in squash (Cucurbita pepo) rootstock seedlings continuously after first drug application assessed as incidence of disease symptoms on hypocotyls or upper or lower sides of cotyledons at 46.1% in 1.50 g/L applied thrice at …; format: functional, organism-based
[40] = tested on: Podosphaera xanthii; assay: as §2, with “at 46.1%” for “on lower surface areas of cotyledonsat 98.2%”, “1.50” for “11.99”, “17.5%)” for “5.1%)”; format: functional, organism-based
[41] = tested on: Podosphaera xanthii; assay: Fungicidal activity against Podosphaera xanthii (powdery mildew) inoculated in inter-specific squash hybrid Strong tosa (Cucurbita moschata x Cucurbita maxima) rootstock seedlings for 7 days prior to drug application assessed as incidence of disease symptoms on hypocotyls or upper or lower sides of …; format: functional, organism-based
[42] = tested on: Podosphaera xanthii; assay: as §1, with “squash (Cucurbita pepo) rootstock seedlings” for “Lagenaria siceraria Emphasis”, “46.1%” for “98.2%”, “1.50” for “11.99”, “3.9%)” for “53.5%)”; format: functional, organism-based

S1SSSSSSS1 [SULFUR]
Activity [1]: 3.7%
Activity [2]: 0.7%
Activity [3]: 0.02%
Activity [4]: 3%
Activity [5]: Non-toxic
Activity [6]: 0.7%
Activity [7]: 34.9%
Activity [8]: Non-toxic
Activity [9]: Non-toxic
Activity [10]: 0.9%
Activity [11]: 0%
Activity [12]: Non-toxic
Activity [13]: 0.03%
Activity [14]: 14.6%

CC(C)(C)C(O)(CCc1ccc(Cl)cc1)Cn1cncn1 (stereo not drawn) [TEBUCONAZOLE]
Activity [15]: 5.6%
Activity [16]: 0%
Activity [17]: 0%
inhibition (INH) [18]: 33%
Activity [19]: 0.005%
Activity [20]: 0.5%
Activity [21]: 0%
Activity [22]: 0.2%
Activity [23]: 71%
Activity [24]: 0.7%
Activity [25]: 34.9%
Activity [26]: 100%
Activity [27]: 0.5%
inhibition (INH) [28]: 33%
Activity [29]: 0.2%
Activity [30]: 0%

COC(=O)NC(=S)Nc1ccccc1NC(=S)NC(=O)OC [THIOPHANATE METHYL]
Activity [31]: 3.9%
Activity [32]: 90.8%
Activity [5]: Non-toxic
Activity [33]: 85.4%
Activity [34]: 7.4%
Activity [35]: 3.2%
Activity [36]: 3%
Activity [12]: Non-toxic

COPPER HYDROXIDE [listing 1 of 2 here]
Activity [5]: Non-toxic
Activity [8]: Non-toxic
Activity [9]: Non-toxic
Activity [12]: Non-toxic

COPPER HYDROXIDE [listing 2 of 2 here]
Activity [37]: 8.2%
Activity [38]: 4.3%
Activity [39]: 9.2%
Activity [40]: 13.6%
Activity [41]: 97.7%
Activity [42]: 0.21%
